The values below come from patent US9636347B2, “Sustained release formulations for the treatment of intraocular pressure or glaucoma” (Icon Bioscience, Inc., priority 2013, dated 2017).

Data set [1] in a line: Solubility of latanoprost. Format: physicochemical. The settings on record: 1%, 2% or 4% (w/w %) formulations, clear solution. From the text:
Latanoprost and other prostaglandin analogs are available commercially, for example, from Cayman Chemical (Ann Arbor, Mich.).
Liquid formulations of latanoprost and benzyl benzoate were made by weighing each component and mixing them together. Latanoprost is soluble in benzyl benzoate, yielding a clear solution. The formulations were either 1%, 2%, or 4% (w/w %) latanoprost.

For data set [2] the following is noted: cited from earlier work.

As to `CC(C)OC(=O)CCC/C=C\C[C@@H]1[C@@H](CC[C@@H](O)CCc2ccccc2)[C@H](O)C[C@@H]1O` [Latanoprost, isopropyl-(Z)7[(1R,2R,3R,5S)3,5-dihydroxy-2-[(3R)-3-hydroxy-5-phenylpentyl]cyclopentyl]-5-heptenoate], the “solubility in benzyl benzoate” value in data set [1] is listed as “soluble”. In data set [2] (acetone, ethanol, ethyl acetate, isopropanol, methanol, octanol), the “solubility in acetone, ethanol, ethyl acetate, isopropanol, methanol, and octanol” value is “freely soluble”. Also, the solubility in acetonitrile result in data set [2] (acetonitrile) is recorded as “very soluble”. Further, in data set [2] (water), the solubility in water result is recorded as “practically insoluble”.
